Residues, ends and D or L forms follow the SMILES beside them. *: point of attachment. Biotin = O=C1N[C@H]2[C@H](CS[C@H]2CCCCC(=O)*)N1; Ahx = NCCCCCC(=O)O
Columns and labels:
[1] = Stability study of ACT peptide in drug product gel; type: physicochemical; settings: for ACT peptide remaining, % of the label claim (initial concentration): drug product with 1.25% hydroxyethylcellulose
Method: Derived through in vitro and in vivo studies, these stabilizers and excipients are incorporated into the drug product since they are non-irritating, non-staining, and non-immunogenic. […] The ACT peptide within the drug product containing 1.25% hydroxyethylcellulose only dropped to 98% of the label claim (i.e., initial concentration) when stored at 5° C. for three months and to 84% of the label claim when stored at 25° C. for the same duration. In one aspect of the invention, edetate disodium (EDTA) and Mannitol are incorporated within the drug product to provide stability to the ACT1 peptide. In some embodiments of the invention, the Mannitol is present in the formulation at 0.01% (w/w) to 1.6% (w/w), 0.01% (w/w) to 1.5% (w/w), 0.01% (w/w) to 1.4% (w/w), 0.01% (w/w) to 1.3% (w/w), 0.01% (w/w) to 1.2% (w/w), 0.01% (w/w) to 1.1% (w/w), 0.01% (w/w) to 1.0% (w/w), 0.01% (w/w) to 0.9% (w/w), 0.01% (w/w) to 0.8% (w/w), 0.01% (w/w) to 0.7% (w/w), 0.01% (w/w) to 0.6% (w/w), 0.01% (w/w) to 0.5% (w/w), 0.01% (w/w) to 0.4% (w/w), 0.01% (w/w) to 0.3% (w/w), 0.01% (w/w) to 0.2% (w/w), 0.01% (w/w) to 0.1% (w/w), or 0.01% (w/w) to 0.0.05% (w/w). In specific embodiments, the Mannitol is present in the formulation at about 0.05% (w/w).

[2] = tested on: C57BL/6 mice, partial body irradiation; experiment: GI-targeted murine partial body irradiation model, survival; type: in vivo, mouse; settings: 10 mg/kg intraperitoneally daily from 24 hrs post exposure up to 21 days, preliminary
Excerpt: In this study, C557BL/6 mice (n=40; 20 females and 20 males) were exposed to partial body irradiation by one dose exposure of […] at 50cGy/min using a 60 Co gamma source. A Farmer ionization chamber was used to provide real-time quantification of the radiation dose. Animals were irradiated in a custom designed restrainer where their left pelvic limb was extended and maintained in position to permit shielding with a cerrobend structure. This method of shielding 5% of bone marrow serves to rescue mice from hematopoietic syndromel. Initiating 24 hrs post exposure, animals were treated daily with 0.9% sodium chloride (vehicle) or 10 mg/kg ACTT 1 (ACT1 polypeptide) delivered intraperitoneally for up to 21 days. Half of the animals (subtracting those that died on days 1-7) were euthanized on day 8 to allow for histological examination of GI organs (histology results pending).

ACT peptide remaining, % of the label claim (initial concentration) ([1]; stored at 5° C. for three months) [%]	ACT peptide remaining, % of the label claim (initial concentration) ([1]; stored at 25° C. for three months) [%]	Stability in Hydroxyethylcellulose, 250 HHX (1.25%) compared to Pluronic gels ([1]; gelling agent comparison)	Compound	Survival / early mortality (Kaplan Maier analysis) compared to saline [2]	Survival / early mortality (Kaplan Maier analysis) compared to saline ([2]; listed as ACTI polypeptide)
98	84	more stable	CC[C@H](C)[C@H](NC(=O)[C@H](CCC(=O)O)NC(=O)[C@H](CC(C)C)NC(=O)[C@H](CC(=O)O)NC(=O)[C@H](CC(=O)O)NC(=O)[C@@H]1CCCN1C(=O)[C@H](CCCNC(=N)N)NC(=O)[C@@H]1CCCN1C(=O)[C@H](CCCNC(=N)N)NC(=O)[C@H](CCCCN)NC(=O)[C@H](CCCCN)NC(=O)[C@H](Cc1c[nH]c2ccccc12)NC(=O)[C@@H]1CCCN1C(=O)[C@H](CCCCN)NC(=O)[C@H](CCCNC(=N)N)NC(=O)[C@H](CCCNC(=N)N)NC(=O)[C@H](CC(N)=O)NC(=O)[C@@H]1CCCN1C(=O)[C@H](Cc1ccccc1)NC(=O)[C@H](Cc1c[nH]c2ccccc12)NC(=O)[C@@H](NC(=O)[C@H](CCCCN)NC(=O)[C@@H]1CCCN1C(=O)[C@H](CCC(N)=O)NC(=O)[C@H](CCCNC(=N)N)NC(=O)CCCCCNC(=O)CCCC[C@@H]1SC[C@@H]2NC(=O)N[C@@H]21)[C@@H](C)CC)C(=O)O [Peptide 328967] ({Biotin-Ahx}-RQPKIWFPNRRKPWKKRPRPDDLEI-OH)		
			RPRPDDLEI [ACT1 polypeptide]	has an early effect on animal mortality	increased survival

Source: patent publication US20230147795A1, “COMPOSITION AND METHODS FOR PREVENTING RADIATION INJURY AND PROMOTING TISSUE REGENERATION” (FIRSTSTRING RESEARCH, INC., priority 2017, published 2023)
